Consider 20 compounds from patent US8067599B2 (Hoffman-La Roche Inc., priority 2006, dated 2011).

pIC50: −log10 of the molar value. Where a name gives a salt, the structure may show the parent alone.

The test system of test [1] is HCT 116 cells. As to the kind of experiment: CellTiter-Glo assay in HCT 116 cells (antiproliferative activity). The format is cell-based. As to conditions: Homo sapiens, HCT-116, 120 h, cell viability after 5 days. Here is the method: The CellTiter-Glo™ Luminescent Cell Viability Assay (Promega) is a homogeneous method of determining the number of viable cells in culture based on quantitation of the ATP present, which signals the presence of metabolically active cells.
HCT 116 cells (human colon carcinoma, ATCC-No. CCl-247) were cultivated in RPMI 1640 medium with GlutaMAX™ 1 (Invitrogen, Cat-No. 61870-010), 5% Fetal Calf Serum (FCS, Sigma Cat-No. F4135 (FBS)); 100 Units/ml penicillin/100 μg/ml streptomycin (=Pen/Strep from Invitrogen Cat. No. 15140). For the assay the cells were seeded in 384 well plates, 1000 cells per well, in the same medium. The next day the test compounds were added in various concentrations ranging from 30 μM to 0.0015 μM (10 concentrations, 1:3 diluted). After 5 days the CellTiter-Glo™ assay was done according to the instructions of the manufacturer (CellTiter-Glo™ Luminescent Cell Viability Assay, from Promega). In brief: the cell-plate was equilibrated to room temperature for approximately 30 minutes and than the CellTiter-Glo™ reagent was added. The contents were carefully mixed for 15 minutes to induce cell lysis. After 45 minutes the luminescent signal was measured in Victor 2, (scanning multiwell spectrophotometer, Wallac).
• Medium: RPMI 1640 with GlutaMAX™ 1 (Invitrogen, Cat-No. 61870), 5% FCS (Sigma Cat.-No. F4135), Pen/Strep (Invitrogen, Cat No. 15140). • HCT116 (ATCC-No. CCl-247): 1000 cells in 60 μl per well of 384 well plate (Greiner 781098, μClear-plate white) • After seeding incubate plates 24 h at 37° C., 5% CO2 2nd. Day: Induction (Treatment with Compounds, 10 Concentrations):
In order to achieve a final concentration of 30 μM as highest concentration 3.5 μl of 10 mM compound stock solution were added directly to 163 μl media. Then step e) of the dilution procedure described below, was followed.

In test [2] the target is T1, fusion protein corresponding to mouse Abl (27-end) (Mus musculus, UniProt P00520).
T1 construct: fusion protein corresponding to mouse Abl (27-end)
T1 sequence (P00520 27-1123 limits assumed): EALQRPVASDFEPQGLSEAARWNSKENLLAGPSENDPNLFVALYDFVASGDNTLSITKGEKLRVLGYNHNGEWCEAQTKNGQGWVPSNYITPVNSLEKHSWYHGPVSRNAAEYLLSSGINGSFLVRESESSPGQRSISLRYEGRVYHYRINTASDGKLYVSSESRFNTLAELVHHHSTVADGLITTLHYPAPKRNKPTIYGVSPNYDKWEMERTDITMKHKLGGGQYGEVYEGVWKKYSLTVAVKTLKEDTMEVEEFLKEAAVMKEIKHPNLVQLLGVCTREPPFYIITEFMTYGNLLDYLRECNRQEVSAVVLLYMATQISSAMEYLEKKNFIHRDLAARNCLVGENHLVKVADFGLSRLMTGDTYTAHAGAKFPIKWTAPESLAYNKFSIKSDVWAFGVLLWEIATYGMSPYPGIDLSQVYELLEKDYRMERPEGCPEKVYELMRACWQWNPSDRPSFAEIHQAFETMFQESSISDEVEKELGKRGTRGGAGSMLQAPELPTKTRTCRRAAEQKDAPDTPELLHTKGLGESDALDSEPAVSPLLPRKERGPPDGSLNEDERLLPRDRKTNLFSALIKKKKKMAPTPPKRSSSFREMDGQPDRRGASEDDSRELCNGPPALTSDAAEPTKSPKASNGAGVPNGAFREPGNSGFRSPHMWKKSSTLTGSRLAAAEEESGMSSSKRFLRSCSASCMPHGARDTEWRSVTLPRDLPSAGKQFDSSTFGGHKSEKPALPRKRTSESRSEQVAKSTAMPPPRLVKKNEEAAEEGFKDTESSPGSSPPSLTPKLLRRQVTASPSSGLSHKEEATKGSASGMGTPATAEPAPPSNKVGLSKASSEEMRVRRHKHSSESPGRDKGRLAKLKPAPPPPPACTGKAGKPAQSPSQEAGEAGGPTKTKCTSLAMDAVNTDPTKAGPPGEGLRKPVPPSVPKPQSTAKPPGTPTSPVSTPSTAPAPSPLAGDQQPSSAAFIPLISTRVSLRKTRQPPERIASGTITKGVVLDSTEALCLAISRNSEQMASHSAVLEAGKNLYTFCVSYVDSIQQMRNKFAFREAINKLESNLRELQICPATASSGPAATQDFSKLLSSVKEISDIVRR
As to the kind of experiment: IC50 determination for inhibitors of Abl kinase (IMAP fluorescence polarization). It is filed as biochemical. The settings on record: 22.8 uM ATP, 37° C., 60 minutes; read-out: IC50 Abl kinase inhibition. Here is the method:
Abl assay was done using fusion protein corresponding to mouse Abl (27-end), fluorescein labeled peptide substrate (with a sequence of EAIYAAPFAKKK) and quantified by Molecular Devices' IMAP fluorescence polarization technology. Compounds were tested in serially diluted concentrations in 384 well plates. Kinase reaction was performed in KAB Buffer (10 mM HEPES, pH 7, 50 mM NaCl, 5 mM MgCl2, 1 mM DTT, 0.1 mM NaVO4, 0.02% BSA), in the presence of 22.8 uM ATP, incubated at 37° C. for 60 minutes. Reaction was stopped by IMAP bead mix (at 1:400 diluted). After incubation at room temperature for 3 hours, the reaction product was analyzed on LJL Acquest (excitation 485 nm and Emission 530 nm).
FP reading (in mP) was used to calculate reaction rate. The assay was semi automated by Tomtec Quadra workstation.

Test [3] has as its target T2, mouse full-length Src protein (Mus musculus, UniProt P05480).
T2 construct: mouse full-length Src protein
Briefly: IC50 determination for inhibitors of Src kinase (IMAP fluorescence polarization). It is filed as biochemical. As to conditions: 24 uM ATP, 37° C., 60 minutes; read-out: IC50 Src kinase inhibition. As to the method:
Src assay was done using mouse full-length Src protein, fluorescein labeled peptide substrate (with a sequence of KVEKIGEGTYGVVYK) and quantified by Molecular Devices' IMAP fluorescence polarization technology. Compounds were tested in serially diluted concentrations in 384 well plates. Kinase reaction was performed in KAB Buffer (10 mM HEPES, pH 7, 50 mM NaCl, 5 mM MgCl2, 1 mM DTT, 0.1 mM NaVO4, 0.02% BSA), in the presence of 24 uM ATP, incubated at 37° C. for 60 minutes. Reaction was stopped by IMAP bead mix (at 1:400 dilution). After incubation at room temperature for 2 hours, the reaction product was analyzed on LJL Acquest (excitation 485 nm and Emission 530 nm).
(§1) FP reading (in mP) was used to calculate reaction rate. The assay was semi-automated by Tomtec Quadra workstation.

In test [4] the target is human recombinant PDGFR beta (Homo sapiens, UniProt P09619). Briefly: IC50 determination for inhibitors of PDGFR kinase (IMAP fluorescence polarization). The format is biochemical. As to conditions: 48 uM ATP, room temperature, 60 minutes, read-out: IC50 PDGFR kinase inhibition. Here is the method:
PDGFR assay was carried out with human recombinant PDGFR beta, fluorescein labeled peptide substrate (with a peptide sequence of ALTSNQEYLDLSMPL) and test compounds (in serial dilution) using 384-well plates. Kinase reaction was performed in MOPS buffer (20 mM MOPS pH 7.1, 5 mM Sodium Acetate, 6.25 mM MgCl2, 0.5 mM EDTA, 1 mM DTT, 0.04 mM NaVO4, 0.02% BSA), in the presence of 48 uM ATP, incubated at room temperature for 60 minutes. Reaction was stopped by IMAP Bead Binding System (Molecular Devices). After incubation at room temperature for 2 hours, the reaction product was analyzed on LJL Acquest.
as §1

human recombinant PDGFR beta, sequence (P09619 33-1106): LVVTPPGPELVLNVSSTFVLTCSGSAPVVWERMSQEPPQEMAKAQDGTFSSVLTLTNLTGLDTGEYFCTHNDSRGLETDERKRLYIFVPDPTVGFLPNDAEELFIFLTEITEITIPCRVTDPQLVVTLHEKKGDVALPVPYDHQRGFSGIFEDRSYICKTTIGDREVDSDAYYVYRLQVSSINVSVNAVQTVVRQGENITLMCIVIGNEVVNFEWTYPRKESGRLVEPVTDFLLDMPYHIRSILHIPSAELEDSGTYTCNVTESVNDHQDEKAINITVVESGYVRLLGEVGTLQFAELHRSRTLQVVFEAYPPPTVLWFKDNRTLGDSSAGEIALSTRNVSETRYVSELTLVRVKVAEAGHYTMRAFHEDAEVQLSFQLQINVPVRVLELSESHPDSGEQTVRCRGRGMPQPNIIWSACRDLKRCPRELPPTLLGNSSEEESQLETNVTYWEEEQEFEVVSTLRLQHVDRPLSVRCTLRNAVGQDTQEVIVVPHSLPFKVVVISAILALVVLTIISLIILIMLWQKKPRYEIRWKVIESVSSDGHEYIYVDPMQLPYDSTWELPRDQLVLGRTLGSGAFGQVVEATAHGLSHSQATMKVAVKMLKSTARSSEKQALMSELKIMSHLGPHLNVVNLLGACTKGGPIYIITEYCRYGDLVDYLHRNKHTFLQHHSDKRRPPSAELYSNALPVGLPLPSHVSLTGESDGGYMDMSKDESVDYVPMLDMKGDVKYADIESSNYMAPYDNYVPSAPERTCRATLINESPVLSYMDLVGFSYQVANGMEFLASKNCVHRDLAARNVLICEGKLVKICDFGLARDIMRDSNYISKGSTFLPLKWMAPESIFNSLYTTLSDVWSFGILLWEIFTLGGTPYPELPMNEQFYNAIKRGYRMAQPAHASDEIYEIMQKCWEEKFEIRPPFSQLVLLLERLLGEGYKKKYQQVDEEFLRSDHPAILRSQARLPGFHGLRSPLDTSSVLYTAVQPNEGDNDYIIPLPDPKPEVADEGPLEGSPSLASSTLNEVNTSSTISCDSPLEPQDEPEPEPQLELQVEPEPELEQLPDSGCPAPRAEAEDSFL
T2 sequence (P05480 whole entry): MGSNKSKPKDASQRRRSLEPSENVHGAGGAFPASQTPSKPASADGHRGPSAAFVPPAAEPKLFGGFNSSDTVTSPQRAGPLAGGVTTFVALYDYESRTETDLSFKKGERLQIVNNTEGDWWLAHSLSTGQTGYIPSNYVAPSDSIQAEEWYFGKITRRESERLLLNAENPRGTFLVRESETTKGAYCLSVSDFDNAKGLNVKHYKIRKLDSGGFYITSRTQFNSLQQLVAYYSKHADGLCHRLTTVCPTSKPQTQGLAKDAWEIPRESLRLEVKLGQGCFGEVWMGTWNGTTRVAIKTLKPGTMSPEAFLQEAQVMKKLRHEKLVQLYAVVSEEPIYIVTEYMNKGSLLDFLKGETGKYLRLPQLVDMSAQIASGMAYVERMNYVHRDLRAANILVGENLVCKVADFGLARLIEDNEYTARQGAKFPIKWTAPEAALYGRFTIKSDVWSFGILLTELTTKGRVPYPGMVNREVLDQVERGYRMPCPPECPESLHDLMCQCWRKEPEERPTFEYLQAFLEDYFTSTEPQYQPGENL

For `CC(Sc1cccc(-c2ccc(C(=O)Nc3ccc(Cl)c(C(=O)Nc4cnc5[nH]ccc5c4)c3)cc2)c1)C(N)=O` (stereo not shown) [Example 1-2, 3′-(1-Carbamoyl-ethylsulfanyl)-biphenyl 4 carboxylic acid [4-chloro 3 (1H-pyrrolo[2,3-b]pyridin-5-ylcarbamoyl)-phenyl]-amide], the pIC50 in test [1] is 5.00 to 7.00.

Take `O=C(Nc1ccc(Cl)c(C(=O)Nc2cnc3[nH]ccc3c2)c1)c1cc(-c2ccccc2Cl)no1` [Example 4-1, 3-(2-Chloro-phenyl)-isoxazole-5-carboxylic acid[4-chloro-3-(1H-pyrrolo[2,3-b]pyridin-5-ylcarbamoyl)-phenyl]-amide]: the figures for the pIC50 in test [2] and in test [1] were 6.00 to 8.30 and 5.00 to 7.00, respectively.

For `Cc1ccc(NC(=O)c2ccccc2)cc1C(=O)Nc1cnc2[nH]cnc2c1` [Example 6-1, 5-benzoylamino-N-(3H-imidazo[4,5-b]pyridin-6-yl)-2-methyl-benzamide], the pIC50 in test [2] is 6.00 to 8.30; in test [3], 8.00.

`Cc1n[nH]c(C)c1-c1ccccc1C(=O)Nc1ccc(Cl)c(C(=O)Nc2cnc3[nH]ccc3c2)c1` [Example 3-1]: the pIC50 in test [3] is 6.00 to 8.30.

Consider `O=C(Nc1ccc(Cl)c(C(=O)Nc2cnc3[nH]ccc3c2)c1)c1cccc(-c2ccccc2)c1` [Example 2-1, Biphenyl-3-carboxylic acid[4-chloro-3-(1H-pyrrolo[2,3-b]pyridin-5-ylcarbamoyl)-phenyl]-amide], for which the pIC50 is 6.00 to 8.30 in test [2], 6.00 to 8.30 in test [3], 7.85 in test [4] and 5.00 to 7.00 in test [1].

Take `CC(C)(C#N)c1cccc(C(=O)Nc2ccc(Cl)c(C(=O)Nc3cnc4[nH]ccc4c3)c2)c1` [Example 4-6, 2-Chloro-5-[3-(cyano-dimethyl-methyl)-benzoylamino]-N-(1H-pyrrolo[2,3-b]pyridin-5-yl)-benzamide]: the pIC50 in test [2] is 6.00 to 8.30; in test [1], 5.00 to 7.00.

With `O=C(Nc1ccc(Oc2ccccc2)nc1)c1ccc(Cl)c(C(=O)Nc2cnc3[nH]ccc3c2)c1` [Example 8-1, 4-Chloro-N^1-(6-phenoxy-pyridin-3-yl)-N^3-(1H-pyrrolo[2,3-b]pyridin-5-yl)-isophthalamide hydrochloride], the pIC50 in test [1] is 5.00 to 7.00.

With `Cc1ccc(NC(=O)c2ccc(-c3ccccc3)cc2)cc1C(=O)Nc1cnc2[nH]cnc2c1` [Example 6-3, Biphenyl-4-carboxylic acid [3-(3H-imidazo[4,5-b]pyridin-6-ylcarbamoyl)-4-methyl-phenyl]-amide], the pIC50 in test [3] is 6.00 to 8.30.

In test [1], `CN1C(=O)CSc2cc(NC(=O)c3ccc(Cl)c(C(=O)Nc4cnc5[nH]ccc5c4)c3)ccc21` [Example 8-8, 4-Chloro-N^1-(4-methyl-3-oxo-3,4-dihydro-2H-benzo[1,4]thiazin-7-yl)-N^3-(1H-pyrrolo[2,3-b]pyridin-5-yl)-isophthalamide hydrochloride] showed a negative logarithm of the IC50 (pIC50) of 5.00 to 7.00.

As to `O=C(Nc1nc2c(c(C(F)(F)F)n1)CCCC2)c1ccc(Cl)c(C(=O)Nc2cnc3[nH]ccc3c2)c1` [Example 8-2, 4-Chloro-N^3-(1H-pyrrolo[2,3-b]pyridin-5-yl)-N^1-(4-trifluoromethyl-5,6,7,8-tetrahydro-quinazolin-2-yl)-isophthalamide hydrochloride], the pIC50 in test [1] is 5.00 to 7.00.

In the case of `COc1ccccc1/C=C/C(=O)Nc1ccc(Cl)c(C(=O)Nc2cnc3[nH]ccc3c2)c1` [Example 4-4, 2-Chloro-5-[(E)-3-(2-methoxy-phenyl)-acryloylamino]-N-(1H-pyrrolo[2,3-b]pyridin-5-yl)-benzamide], in test [1], the pIC50 is 5.00 to 7.00.

`O=C(N[C@H]1C[C@@H]1c1ccccc1)c1ccc(Cl)c(C(=O)Nc2cnc3[nH]ccc3c2)c1` [Example 8-3, 4-Chloro-N^1-((1S,2R)-2-phenyl-cyclopropyl)-N^3-(1H-pyrrolo[2,3-b]pyridin-5-yl)-isophthalamide hydrochloride] gave a pIC50 in test [1] of 5.00 to 7.00.

As for `CC(C)(C)Oc1ccc(C(=O)Nc2ccc(Cl)c(C(=O)Nc3cnc4[nH]ccc4c3)c2)cc1` [Example 4-5, 5-(4-tert-Butoxy-benzoylamino)-2-chloro-N-(1H-pyrrolo[2,3-b]pyridin-5-yl)-benzamide], the results for the pIC50 in test [2], in test [3] and in test [1] were 6.00 to 8.30, 6.00 to 8.30 and 6.42, respectively.

`O=C(Nc1cccc(-n2cccn2)c1)c1ccc(Cl)c(C(=O)Nc2cnc3[nH]ccc3c2)c1` [Example 8-5, 4-Chloro-N^1-(3-pyrazol-1-yl-phenyl)-N^3-(1H-pyrrolo[2,3-b]pyridin-5-yl)-isophthalamide hydrochloride] gave a pIC50 in test [1] of 5.00 to 7.00.

For the compound `O=C(Nc1ccc(N2CCOCC2)cc1)c1ccc(Cl)c(C(=O)Nc2cnc3[nH]ccc3c2)c1` [Example 7-1, 4-Chloro-N^1-(4-morpholin-4-yl-phenyl)-N^3-(1H-pyrrolo[2,3-b]pyridin-5-yl)-isophthalamide], the values for the pIC50 in test [2], in test [3] and in test [4] were 6.08, 6.00 to 8.30 and 6.00 to 8.00, respectively.

For the compound `Cc1ccc(NC(=O)c2cccc(-c3ccccc3)c2)cc1C(=O)Nc1cnc2[nH]cnc2c1` [Example 6-2, Biphenyl-3-carboxylic acid [3-(3H-imidazo[4,5-b]pyridin-6-ylcarbamoyl)-4-methyl-phenyl]-amide], the pIC50 in test [3] was 6.00 to 8.30; in test [4] it was 5.95.

For `COc1ccc([C@H]2C[C@@H]2C(=O)Nc2ccc(Cl)c(C(=O)Nc3cnc4[nH]ccc4c3)c2)cc1` [Example 4-7, 2-Chloro-5-{[(1S,2S)-2-(4-methoxy-phenyl)-cyclopropanecarbonyl]-amino}-N-(1H-pyrrolo[2,3-b]pyridin-5-yl)-benzamide], the pIC50 in test [1] is 5.00 to 7.00.

Regarding `Cc1c(C(=O)Nc2ccc(Cl)c(C(=O)Nc3cnc4[nH]ccc4c3)c2)cnn1-c1ccccc1` [Example 4-2, 5-Methyl-1-phenyl-1H-pyrazole-4-carboxylic acid [4-chloro-3-(1H-pyrrolo[2,3-b]pyridin-5-ylcarbamoyl)-phenyl]-amide], the pIC50 in test [2] and in test [3] was 6.00 to 8.30 throughout.

Turning to `O=C(Nc1ccc(Cl)c(C(=O)Nc2cnc3[nH]ccc3c2)c1)c1cccc(N2CCOCC2)c1` [Example 4-3, 2-Chloro-5-(3-morpholin-4-yl-benzoylamino)-N-(1H-pyrrolo[2,3-b]pyridin-5-yl)-benzamide], the pIC50 is 6.00 to 8.30 in test [2], 6.00 to 8.30 in test [3] and 5.00 to 7.00 in test [1].

Take `CC(C)(C#N)c1cccc(NC(=O)c2ccc(Cl)c(C(=O)Nc3cnc4[nH]ccc4c3)c2)c1` [Example 8-7, 4-Chloro-N^1-[3-(cyano-dimethyl-methyl)-phenyl]-N^3-(1H-pyrrolo[2,3-b]pyridin-5-yl)-isophthalamide hydrochloride]: the pIC50 in test [1] is 5.00 to 7.00.
